According to ChEMBL document CHEMBL1201862, “PubChem BioAssay data set” (2004):
Active and inactive are the calls of the source.

Experiments:
[1] = viability of uninfected HEp-2 cells – cell-based, HTS, cytotoxicity control for RSV inhibitor project, dose response (AID 2410); type: functional; conditions: human respiratory syncytial virus
[2] = target: T1, Cytochrome P450 1A2 (Homo sapiens, UniProt P05177);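 also: PubChem cytochrome P450 panel assay, CYP1A2 panel member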
T1 sequence (P05177 whole entry): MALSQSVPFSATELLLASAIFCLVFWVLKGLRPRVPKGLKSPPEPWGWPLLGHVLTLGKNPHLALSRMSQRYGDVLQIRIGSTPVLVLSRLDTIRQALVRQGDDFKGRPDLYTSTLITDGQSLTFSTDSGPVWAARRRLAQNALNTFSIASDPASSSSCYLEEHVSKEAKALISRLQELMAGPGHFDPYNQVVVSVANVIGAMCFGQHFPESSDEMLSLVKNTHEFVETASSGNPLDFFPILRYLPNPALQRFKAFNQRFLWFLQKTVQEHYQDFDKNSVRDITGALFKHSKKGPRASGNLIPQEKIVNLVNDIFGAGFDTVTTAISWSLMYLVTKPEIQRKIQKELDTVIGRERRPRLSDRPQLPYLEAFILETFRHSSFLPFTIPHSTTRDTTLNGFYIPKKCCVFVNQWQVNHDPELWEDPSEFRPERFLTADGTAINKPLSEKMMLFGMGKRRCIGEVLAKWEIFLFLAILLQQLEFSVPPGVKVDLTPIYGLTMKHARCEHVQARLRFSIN

[3] = target: Cytochrome P450 2C9 (Homo sapiens, UniProt P11712)
Chain of Cytochrome P450 2C9 (P11712 whole entry): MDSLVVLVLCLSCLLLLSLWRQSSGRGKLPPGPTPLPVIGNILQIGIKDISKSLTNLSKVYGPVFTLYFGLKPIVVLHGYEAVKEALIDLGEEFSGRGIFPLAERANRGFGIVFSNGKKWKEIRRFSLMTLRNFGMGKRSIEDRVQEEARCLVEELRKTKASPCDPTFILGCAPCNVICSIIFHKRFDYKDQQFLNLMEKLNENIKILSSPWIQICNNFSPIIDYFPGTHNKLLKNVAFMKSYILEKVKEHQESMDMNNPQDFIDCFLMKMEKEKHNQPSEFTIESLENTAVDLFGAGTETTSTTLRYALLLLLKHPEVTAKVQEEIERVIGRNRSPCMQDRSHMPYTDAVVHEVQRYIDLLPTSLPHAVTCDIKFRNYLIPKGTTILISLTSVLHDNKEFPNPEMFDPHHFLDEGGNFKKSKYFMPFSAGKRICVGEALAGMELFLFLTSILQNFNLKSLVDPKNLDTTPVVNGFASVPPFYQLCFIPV

[4] = alpha-synuclein stem-loop luciferase translation blockers – H4 neuroglioma cells, luminescence, confirmation (AID 1988); type: functional, cell-based
[5] = luciferase reporter signal suppression in cells – H4 neuroglioma cells, luminescence, dose response (AID 1990); type: functional, cell-based
[6] = Luminescence Cell-Based Dose Response HTS to Identify Inhibitors of 5'UTR Stem-Loop Driven Prion Protein mRNA Translation in H4 Neuroglioblastoma Cells. [Related pubchem assays: 1827 (Project Summary), 1813 (Primary HTS)]; type: functional
[7] = target: Cytochrome P450 2C19 (Homo sapiens, UniProt P33261); experiment: Cytochrome panel assay with activity outcomes. Panel member name: p450-cyp2c19 Compounds with AC50 equal or less than 10 uM are considered active; type: functional; conditions: read-out: AC50
Chain of Cytochrome P450 2C19 (P33261 whole entry): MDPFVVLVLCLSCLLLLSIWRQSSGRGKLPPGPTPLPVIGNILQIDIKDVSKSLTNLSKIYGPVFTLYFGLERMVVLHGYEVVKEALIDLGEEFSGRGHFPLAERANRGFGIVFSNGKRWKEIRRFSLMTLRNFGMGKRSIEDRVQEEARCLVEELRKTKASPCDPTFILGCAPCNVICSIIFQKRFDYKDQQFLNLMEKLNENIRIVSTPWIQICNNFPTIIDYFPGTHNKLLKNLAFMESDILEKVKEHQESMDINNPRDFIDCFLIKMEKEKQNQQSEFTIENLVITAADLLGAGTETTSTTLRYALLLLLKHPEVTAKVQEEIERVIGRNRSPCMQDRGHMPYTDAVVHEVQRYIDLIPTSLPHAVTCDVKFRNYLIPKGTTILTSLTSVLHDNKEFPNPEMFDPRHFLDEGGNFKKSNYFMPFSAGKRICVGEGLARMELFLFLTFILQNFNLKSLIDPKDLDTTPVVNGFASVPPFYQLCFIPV

[8] = target: T2, Ubiquitin-conjugating enzyme E2 N (Homo sapiens, UniProt P61088); type: functional;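 also: Dose-response confirmation in a TR-FRET assay detecting UBC13-driven polyubiquitin chain formation, inhibition measured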
T2 sequence (P61088 whole entry): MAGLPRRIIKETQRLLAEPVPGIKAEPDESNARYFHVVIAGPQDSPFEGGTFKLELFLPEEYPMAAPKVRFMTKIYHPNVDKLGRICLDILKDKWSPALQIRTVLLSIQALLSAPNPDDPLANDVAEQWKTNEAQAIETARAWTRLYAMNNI

[9] = Luminescence Cell-Based Dose Confirmation HTS to Identify Inhibitors of Platelet Dense Granule Release. [Related pubchem assays: 1663 (Primary HTS), 1678 (Summary of Project)]; type: functional
[10] = target: Luciferin 4-monooxygenase (Photinus pyralis, UniProt P08659); experiment: inhibition of purified Photinus pyralis luciferase – biochemical, luminescence, dose response (AID 1891)
Chain of Luciferin 4-monooxygenase (P08659 whole entry): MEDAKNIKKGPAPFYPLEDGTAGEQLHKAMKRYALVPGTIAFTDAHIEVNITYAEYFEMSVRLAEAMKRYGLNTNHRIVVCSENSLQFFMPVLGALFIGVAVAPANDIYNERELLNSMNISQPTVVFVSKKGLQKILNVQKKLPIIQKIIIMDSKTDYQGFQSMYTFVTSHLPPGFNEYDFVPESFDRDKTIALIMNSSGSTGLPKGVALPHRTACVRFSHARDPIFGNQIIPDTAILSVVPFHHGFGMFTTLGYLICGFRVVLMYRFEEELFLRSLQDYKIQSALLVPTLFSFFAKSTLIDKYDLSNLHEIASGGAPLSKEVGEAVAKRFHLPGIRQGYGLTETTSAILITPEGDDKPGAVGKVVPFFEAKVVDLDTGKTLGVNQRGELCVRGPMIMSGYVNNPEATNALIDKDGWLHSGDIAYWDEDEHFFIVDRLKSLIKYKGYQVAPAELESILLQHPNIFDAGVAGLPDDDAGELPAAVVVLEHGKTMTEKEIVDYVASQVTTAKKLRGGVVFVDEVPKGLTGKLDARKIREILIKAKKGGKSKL

[11] = NIH3T3 cell viability loss – ATP luminescence, mouse fibroblasts, counter-screen, dose response (AID 2010); type: functional, cell-based;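 also: cells exposed to compound for about 90 hours before reading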
[12] = Trypanosoma cruzi growth suppression in host cells – NIH3T3 host cells, beta-gal luminescence, confirmation (AID 2044); type: functional, cell-based;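 also: intracellular parasites grown in NIH/3T3 mouse fibroblasts as host cells; luminescent beta-galactosidase reporter signal from transgenic T. cruzi replicating inside host cells; inhibitors lower the luminescence signal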
[13] = target: Cytochrome P450 3A4 (Homo sapiens, UniProt P08684);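 also: CYP3A4 tested as one member of a cytochrome P450 panel screen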
Chain of Cytochrome P450 3A4 (P08684 whole entry): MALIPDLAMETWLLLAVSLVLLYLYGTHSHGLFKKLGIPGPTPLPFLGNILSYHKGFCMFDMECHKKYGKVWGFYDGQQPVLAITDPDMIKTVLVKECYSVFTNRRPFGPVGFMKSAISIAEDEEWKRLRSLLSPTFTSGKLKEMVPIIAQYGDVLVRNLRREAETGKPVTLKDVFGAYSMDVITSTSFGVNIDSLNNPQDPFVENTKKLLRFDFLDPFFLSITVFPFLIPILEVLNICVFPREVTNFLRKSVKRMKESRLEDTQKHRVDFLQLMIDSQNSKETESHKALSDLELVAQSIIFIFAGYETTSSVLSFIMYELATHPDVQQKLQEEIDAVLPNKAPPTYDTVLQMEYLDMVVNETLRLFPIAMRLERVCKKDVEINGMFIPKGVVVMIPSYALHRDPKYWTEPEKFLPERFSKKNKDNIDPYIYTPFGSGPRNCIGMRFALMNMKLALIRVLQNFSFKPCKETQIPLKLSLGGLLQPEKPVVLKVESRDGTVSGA

[14] = reduction of Shn3 3'UTR-driven luciferase in osteoblasts – cell-based, Clone20 osteoblasts, firefly luciferase, cherry-picked, dose response (AID 624132); type: functional;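 also: firefly luciferase luminescence from reporter carrying the Shn3 3'UTR in osteoblasts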
[15] = non-specific 3'UTR reporter inhibition in Clone20-Shn3RL – cell-based, Renilla luciferase, cherry-picked, counter-screen for Shn3 inhibitor project, dose response (AID 624133); type: functional
[16] = loss of viability in HepG2 cells – cell-based, CellTiter-Glo, cherry-picked, cytotoxicity control for Shn3 inhibitor project, dose response (AID 624134); type: functional
[17] = target: Cytochrome P450 2D6 (Homo sapiens, UniProt P10635);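 also: CYP2D6 member of a cytochrome P450 panel assay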
Chain of Cytochrome P450 2D6 (P10635 whole entry): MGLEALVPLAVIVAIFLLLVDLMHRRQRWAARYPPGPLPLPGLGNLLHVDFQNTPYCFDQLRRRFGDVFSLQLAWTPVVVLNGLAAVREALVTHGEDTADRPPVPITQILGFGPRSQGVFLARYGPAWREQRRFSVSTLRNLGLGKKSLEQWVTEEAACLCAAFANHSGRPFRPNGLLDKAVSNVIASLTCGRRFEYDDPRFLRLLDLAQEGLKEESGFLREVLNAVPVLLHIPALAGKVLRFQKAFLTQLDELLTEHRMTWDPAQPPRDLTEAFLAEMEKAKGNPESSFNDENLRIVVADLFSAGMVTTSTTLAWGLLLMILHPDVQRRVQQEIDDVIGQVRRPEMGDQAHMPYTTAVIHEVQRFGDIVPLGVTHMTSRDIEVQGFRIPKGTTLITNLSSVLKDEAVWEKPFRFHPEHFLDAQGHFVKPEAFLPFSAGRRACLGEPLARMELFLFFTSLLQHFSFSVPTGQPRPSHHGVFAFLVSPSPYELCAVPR

[18] = target: T3, Corticotropin-releasing factor receptor 2/Corticotropin-releasing factor-binding protein (Homo sapiens, UniProt P24387+Q13324); experiment: activators of CRF receptor 2 with binding protein – uHTS hits, confirmation (AID 602473); type: functional; conditions: read-out: EC50_Mean
T3 sequence (Q13324 whole entry): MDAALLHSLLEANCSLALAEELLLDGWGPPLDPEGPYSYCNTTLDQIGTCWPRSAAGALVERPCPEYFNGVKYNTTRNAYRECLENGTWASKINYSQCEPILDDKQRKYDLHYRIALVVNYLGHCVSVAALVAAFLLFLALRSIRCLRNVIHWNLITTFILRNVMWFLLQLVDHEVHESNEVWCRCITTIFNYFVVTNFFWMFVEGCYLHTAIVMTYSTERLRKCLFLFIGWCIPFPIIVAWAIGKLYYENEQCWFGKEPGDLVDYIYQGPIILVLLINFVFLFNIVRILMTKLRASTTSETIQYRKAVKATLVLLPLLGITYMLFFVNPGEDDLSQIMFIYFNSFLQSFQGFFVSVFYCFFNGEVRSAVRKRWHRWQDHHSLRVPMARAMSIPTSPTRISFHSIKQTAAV
T3 sequence (P24387 whole entry): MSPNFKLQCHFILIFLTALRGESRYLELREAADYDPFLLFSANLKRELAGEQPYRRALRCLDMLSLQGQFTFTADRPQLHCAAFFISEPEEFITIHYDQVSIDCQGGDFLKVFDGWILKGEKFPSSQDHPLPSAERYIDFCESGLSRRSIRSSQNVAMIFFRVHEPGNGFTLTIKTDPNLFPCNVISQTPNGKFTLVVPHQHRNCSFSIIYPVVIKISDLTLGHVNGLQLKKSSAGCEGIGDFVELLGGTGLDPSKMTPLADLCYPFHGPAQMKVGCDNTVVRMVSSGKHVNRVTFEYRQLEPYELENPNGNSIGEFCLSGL

[19] = target: T3, Corticotropin-releasing factor receptor 2/Corticotropin-releasing factor-binding protein; experiment: Dose Response confirmation of uHTS hits for small molecule antagonists of the CRF-binding protein and CRF-R2 receptor complex.; type: functional; conditions: read-out: IC50_Mean

Cc1cc(-c2ccc(NC(=O)[C@@H]3CCCC[C@@H]3C(=O)O)c(C)c2)ccc1NC(=O)[C@@H]1CCCC[C@@H]1C(=O)O
CC50 [1]: 17.9 µM (active)

COC(=O)[C@@]1(Cc2ccc(OC)cc2)[C@@H]2[C@@H](CC(=O)[C@H]2CC(=O)C(=O)N(C)C)CN1C(=O)c1ccccc1
AC50 [2]: 2 µM (inconclusive)
AC50 [3]: 39.8 µM (inconclusive)

Sc1nnc(CSCc2ccccc2Cl)n1-c1ccccc1
AC50 [2]: 22.4 µM (inconclusive)
AC50 [3]: 5.01 µM (inconclusive)

CC(C)CCn1nc(C(=O)Nc2nc3c(s2)CCCC3)c2ccccc2c1=O
EC50 [4]: 12.8 µM (active)
EC50 [5]: 16.9 µM (active)
EC50 [6]: 12.9 µM (active)

Cc1ccc(S(=O)(=O)N2CCN(C(=O)CN3CCN(C)CC3)C2)cc1
AC50 [2]: 15.8 µM (inconclusive)
AC50 [7]: 28.2 µM (inconclusive)

Cc1cccc(N2CCc3c2nc2ccccc2c3N)c1
IC50 [8]: > 20 µM (inactive)

Cc1cc(C)c(S(=O)(=O)Nc2cccc(C(F)(F)F)c2)c(C)c1
AC50 [2]: 39.8 µM (inconclusive)

COc1ccccc1-c1cc(C(=O)N2CCN(c3ccccc3)CC2)no1
CC50 [1]: 31.9 µM (active)

CS(=O)(=O)N1CCN(c2c(Cl)cccc2[N+](=O)[O-])CC1
AC50 [2]: 28.2 µM (inconclusive)
AC50 [3]: 0.251 µM (inconclusive)

CC1(C)Cc2nc3sc4c(SCC(=O)NCc5ccccc5)ncnc4c3cc2CO1
EC50 [4]: 3.72 µM (active)
EC50 [6]: > 120 µM (not active)

Cc1ccc(S(=O)(=O)N2CCCC2C(=O)O)cc1 (stereo unspecified)
EC50 [9]: > 112 µM (not active)
EC50 [10]: > 112 µM (not active)

NCC12CC3CC(C1)CC(c1ccc(Cl)cc1)(C3)C2
EC50 [11]: > 60 µM (inconclusive)
IC50 [8]: > 20 µM (inactive)
EC50 [12]: 2.19 µM (active)

Cc1ccc(-n2nc3c(=O)n(CC(=O)NCc4ccc(C)o4)nc(C)c3c2C)cc1
EC50 [4]: > 120 µM (not active)
EC50 [5]: 17.8 µM (active)
EC50 [6]: 109 µM (active)

CN(C)CCN(C)CCc1ccc(Cl)c(Cl)c1
AC50 [2]: 39.8 µM (inconclusive)

Cc1nc(SCC(=O)NCC2CCCO2)c2cc(-c3ccccc3)sc2n1 (stereo unspecified)
CC50 [1]: 20.3 µM (active)

Cc1ccsc1C(=O)Nc1nc2ccccc2[nH]1
EC50 [9]: 4.71 µM (active)
EC50 [10]: 2.67 µM (active)

O=C(O)CCC/C=C\C[C@@H]1CO[C@H](C(F)(F)F)O[C@@H]1c1ccccc1O
AC50 [13]: 15.8 µM (inconclusive)
AC50 [2]: 39.8 µM (inconclusive)
AC50 [7]: 10 µM (inconclusive)
AC50 [3]: 20 µM (inconclusive)

COc1ccc(-c2nn(-c3ccccc3)cc2C(=O)O)cc1
EC50 [9]: > 112 µM (not active)
EC50 [10]: > 112 µM (not active)

Cc1ccc(NC(=O)c2sccc2C)nc1
EC50 [9]: 5.98 µM (active)
EC50 [10]: 13.9 µM (active)

Cc1nc2cc(NC(=O)Nc3cccc(F)c3)ccc2n1C
EC50 [9]: 7.45 µM (active)
EC50 [10]: 5.89 µM (active)

CCNc1ncc2nc(-c3ccc(OC)cc3)c(=O)n(CCOC)c2n1
AC50 [13]: 15.8 µM (inconclusive)
AC50 [2]: 1.26 µM (inconclusive)

CCOC(=O)c1c(NC(=O)Cc2cccs2)sc(C(=O)N2CCCCC2)c1C
EC50 [4]: > 120 µM (not active)
EC50 [5]: 14.6 µM (active)
EC50 [6]: 22.2 µM (active)

CCCC(=O)Nc1cc(C(=O)N2CCC3(CC2)OCCO3)ccc1S(=O)(=O)c1ccc(C)cc1
EC50 [4]: > 120 µM (not active)
EC50 [5]: > 120 µM (not active)
EC50 [6]: > 120 µM (not active)

O=C(CSc1nnc2ccccn12)NNC(=O)c1ccc([N+](=O)[O-])cc1
EC50 [9]: > 112 µM (not active)
EC50 [10]: > 112 µM (not active)

COc1ccccc1OC[C@H](O)COC(N)=O
AC50 [2]: 10 µM (inconclusive)

Cc1ccc(CNc2nc(N)c([N+](=O)[O-])c(Nc3ccc(F)cc3)n2)cc1
AC50 [13]: 2 µM (inconclusive)
AC50 [2]: 1.12 µM (inconclusive)
AC50 [3]: 3.55 µM (inconclusive)

O=C(c1ccncc1)N1CCC[C@@]2(CCN(c3ccccn3)C2)C1
AC50 [2]: 20 µM (inconclusive)
AC50 [3]: 20 µM (inconclusive)

Cc1ccccc1N=C(S)c1ccc2ccccc2n1
EC50 [9]: > 112 µM (not active)
EC50 [10]: > 112 µM (not active)

COC(=O)c1c(-c2cccc3ccccc23)csc1NC(=O)Cc1ccc(OC)c(OC)c1
EC50 [11]: 12.6 µM (active)
EC50 [9]: > 112 µM (not active)
EC50 [12]: 2.49 µM (active)
AC50 [14]: 5.43 µM (active)
AC50 [15]: 16.9 µM (active)
AC50 [16]: > 70 µM (inactive)
EC50 [10]: > 112 µM (not active)

Nc1nc2sc3c(c2cc1C(=O)N1CCOCC1)CCCC3
EC50 [9]: > 112 µM (not active)
EC50 [10]: > 112 µM (not active)

CCc1ccc2oc(-c3cc(N)ccc3Cl)nc2c1
CC50 [1]: 41.3 µM (active)

O=C(CN1CCCCC1)Nc1cccc([N+](=O)[O-])c1
AC50 [2]: 39.8 µM (inconclusive)
AC50 [17]: 15.8 µM (inconclusive)
AC50 [7]: 14.1 µM (inconclusive)

O=C(CSc1nnc(-c2cccc(S(=O)(=O)N3CCOCC3)c2)n1C1CCCCCC1)NCc1ccccc1
AC50 [2]: 39.8 µM (inconclusive)
AC50 [17]: 7.94 µM (inconclusive)
AC50 [7]: 31.6 µM (inconclusive)
AC50 [3]: 14.1 µM (inconclusive)

C#CCOCCOCCOCCNc1nc(N2CCN(C(=O)[C@H]([C@@H](C)CC)n3cc(CCCCN)nn3)CC2)nc(N2CCN(C(=O)[C@H]([C@@H](C)CC)n3cc(CCCN=C(N)N)nn3)CC2)n1
IC50 [8]: > 20 µM (inactive)

C#CCOCCOCCOCCNc1nc(N2CCN(C(=O)C([C@@H](C)O)n3cc([C@@H](N)CCCCN)nn3)CC2)nc(N2CCN(C(=O)[C@H](CCCCN)n3cc([C@@H](N)CC(N)=O)nn3)CC2)n1 (stereo partly specified)
IC50 [8]: > 20 µM (inactive)

CCC[C@@H](CN1CCC[C@H]1CN1C(N)=NC[C@H]1C(C)C)N1C[C@@H](Cc2ccccc2)N(CCCC2CCCC2)C1=N
IC50 [8]: > 20 µM (inactive)

O=C(NCCc1cccnc1)C1CCC(=O)N(Cc2ccc(Cl)cc2)C1 (stereo unspecified)
EC50 [18]: > 53 µM (inactive)
IC50 [19]: > 47.1 µM (inactive)

O=C(O)[C@H]1C[C@@H](CP(=O)(O)O)CCN1
AC50 [2]: 25.1 µM (inconclusive)

CCOc1cccc(-c2c(C(=O)N/N=C/c3ccco3)nnn2-c2nonc2N)c1
EC50 [9]: 14.8 µM (active)
EC50 [10]: > 112 µM (not active)

CO/C(O)=C1\C(C)=Nc2nnnn2C1c1cc(OC)ccc1OC (stereo unspecified)
EC50 [4]: > 120 µM (not active)
EC50 [5]: > 120 µM (not active)
EC50 [6]: 18.3 µM (active)

Cc1ccccc1/C=N/NC1=NC(=O)CCS1
CC50 [1]: 26.4 µM (active)
